Measurements: US12116353B1, “Crystalline chloro-n-(4-(morpholinomethyl)phenyl)benzamide and crystalline hydrochloride salt” (GEN1E LIFESCIENCES INC., priority 2024, dated 2024)
In brackets after ≈: the same amount, converted by molar mass.

Experiment: Equilibrium solubility in aqueous buffers
Assay type: physicochemical
Conditions: thermodynamic from solid, LC-MS/MS
Description: The equilibrium solubility of crystalline compound (1) and crystalline compound (2) was measured in various aqueous buffers. The pH 4.0 and pH 5.0 buffers were prepared by combining 50 mL of 0.2 M potassium biphthalate with 150 mL of H2O, and then adjusting to pH 4.0 or pH 5.0 with 10 N HCl. The pH 6.0 buffer was prepared by combining 50 mL of 0.2 M KH2PO4 with 150 mL of H2O, and then adjusting to pH 6.0 with 10 N NaOH. The pH 7.4 buffer was prepared by combining 50 mL of 0.2 M KH2PO4 with 150 mL of H2O, and then adjusting to pH 7.4 with 10 N NaOH. At least 1 mg of powder for each compound was combined with 1 mL of each buffer to make a saturated mixture. The samples were shaken overnight on a Thermomixer® at room temperature. The samples were then passed through a […] PTFE syringe filter. The filtrate was sampled and diluted in duplicate as appropriate into a mixture of 1:1 buffer:acetonitrile (ACN) prior to analysis. All samples were assayed by LC-MS/MS using electrospray ionization against standards prepared in a mixture of 1:1 assay buffer:ACN. Standard concentrations ranged from 1.0 μM to 0.3 nM. The samples were analyzed by LCMS using a Waters Acuity® UPLC BEH Phenyl 30×2.1 mm, 1.7 μm liquid chromatography column and a PE Sciex® API 4000 mass spectrometer equipped with a Turbo Ionspray.

solubility (aqueous potassium phosphate (KH2PO4) buffer, aqueous buffer pH 7.4, shaken overnight at room temperature) [mM] | solubility (aqueous potassium biphthalate buffer, aqueous buffer pH 4.0, shaken overnight at room temperature) [mM] | solubility (aqueous potassium biphthalate buffer, aqueous buffer pH 5.0, shaken overnight at room temperature) [mM] | solubility (aqueous potassium phosphate (KH2PO4) buffer, aqueous buffer pH 6.0, shaken overnight at room temperature) [mM] | SMILES
0.0125 (≈ 4.14 µg/mL) | – | – | – | O=C(Nc1ccc(CN2CCOCC2)cc1)c1ccc(Cl)cc1 [Crystalline Compound (2), 4-chloro-N-(4-(morpholinomethyl)phenyl)benzamide]
– | 12.5 | 10.2 | 8.17 | Cl.O=C(Nc1ccc(CN2CCOCC2)cc1)c1ccc(Cl)cc1 [Crystalline Compound (1), 4-chloro-N-(4-(morpholinomethyl)phenyl)benzamide hydrochloride]
